From the Deep4Chem optical property database
Blank lines part the entries; values can stand above or below the compound they belong to.

Assay: photoluminescence quantum yield (fraction); solvent given as SMILES

SMILES: COc1cc2c(cc1/C=C/C(=C(C#N)C#N)c1ccccc1)c1ccccc1n2C
photoluminescence quantum yield (in C1CCOC1): 0.008 | photoluminescence quantum yield (in CC#N): 0.014 | photoluminescence quantum yield (in CCO): 0.012 | photoluminescence quantum yield (in CCOC(C)=O): 0.009 | photoluminescence quantum yield (in CN(C)C=O): 0.022 | photoluminescence quantum yield (in CO): 0.012 | photoluminescence quantum yield (in CS(C)=O): 0.033 | photoluminescence quantum yield (in Cc1ccccc1): 0.007 | photoluminescence quantum yield (in ClC(Cl)Cl): 0.018 | photoluminescence quantum yield (in ClCCl): 0.022

SMILES: O=C1NC(=O)c2c1c1c3ccccc3[nH]c1c1[nH]c3ccccc3c21
photoluminescence quantum yield (in C1CCOC1): 0.44 | photoluminescence quantum yield (in CC#N): 0.33 | photoluminescence quantum yield (in CC(C)OC(C)C): 0.25 | photoluminescence quantum yield (in CCCCOCCCC): 0.28 | photoluminescence quantum yield (in CCO): 0.26 | photoluminescence quantum yield (in CCOC(C)=O): 0.29 | photoluminescence quantum yield (in CN(C)C=O): 0.25 | photoluminescence quantum yield (in ClCCl): 0.18

SMILES: CC1(C)c2ccccc2N(c2ccc(C(=CC#N)c3ccc(N4c5ccccc5C(C)(C)c5ccccc54)cc3)cc2)c2ccccc21
photoluminescence quantum yield (in Cc1ccccc1): 0.313

SMILES: CNC1=C2C=CC=[N+]2[B-](F)(F)n2cccc21
photoluminescence quantum yield (in C1CCCCC1): 0.7 | photoluminescence quantum yield (in CC(C)=O): 0.16 | photoluminescence quantum yield (in CCO): 0.16 | photoluminescence quantum yield (in CCOC(C)=O): 0.42 | photoluminescence quantum yield (in CO): 0.1 | photoluminescence quantum yield (in OCC(F)(F)F): 0.23

SMILES: O=S1(=O)c2ccccc2C2(c3cc(-c4ccc(N(c5ccccc5)c5ccccc5)cc4)ccc3-c3ccc(-c4ccc(N(c5ccccc5)c5ccccc5)cc4)cc32)c2ccccc21
photoluminescence quantum yield (in ClCCl): 0.83 | photoluminescence quantum yield (in c1cc(-n2c3ccccc3c3ccccc32)cc(-n2c3ccccc3c3ccccc32)c1): 0.9

SMILES: Cc1ccc(-c2c3nc(c(-c4ccc(C)cc4)c4ccc([nH]4)c(-c4ccc(OC(=O)C(C)c5ccc(-c6ccccc6)c(F)c5)cc4)c4nc(c(-c5ccc(C)cc5)c5ccc2[nH]5)C=C4)C=C3)cc1 (configuration not stated)
photoluminescence quantum yield (in ClCCl): 0.131

SMILES: CC(C)(C)c1ccc2oc(-c3ccc(-c4nc5cc(C(C)(C)C)ccc5o4)s3)nc2c1
photoluminescence quantum yield (in C1CCCCC1): 0.8 | photoluminescence quantum yield (in C1CCOC1): 0.78 | photoluminescence quantum yield (in CC1CCCCC1): 0.66 | photoluminescence quantum yield (in CC#N): 0.76 | photoluminescence quantum yield (in CCCCO): 1 | photoluminescence quantum yield (in CCO): 1 | photoluminescence quantum yield (in CN(C)C=O): 0.87 | photoluminescence quantum yield (in Cc1ccccc1): 1 | photoluminescence quantum yield (in Clc1ccccc1Cl): 0.96 | photoluminescence quantum yield (in c1ccccc1): 0.82

SMILES: C(=C\c1cc[n+](Cc2ccccc2)cc1)/c1cc[n+](Cc2ccccc2)cc1
photoluminescence quantum yield (in CC#N): 0.0006

SMILES: CCCCN1C(=O)c2cc(Oc3ccc(C(C)(C)C)cc3)c3c4c(Oc5ccc(C(C)(C)C)cc5)cc5c(=O)n6c(c7cc(Oc8ccc(C(C)(C)C)cc8)c(c8c(Oc9ccc(C(C)(C)C)cc9)cc(c2c38)C1=O)c4c57)=Cc1cccc[n+]1[B-]6(F)F
photoluminescence quantum yield (in C1CCOC1): 0.564 | photoluminescence quantum yield (in Cc1ccccc1): 0.451 | photoluminescence quantum yield (in ClCCl): 0.5

More lines, now with the values ahead:

photoluminescence quantum yield (in C1CCCCC1): 0.002
SMILES: COc1ccc(/C=C(\C)c2nc3ccccc3o2)cc1

photoluminescence quantum yield (in CC#N): 0.014
SMILES: Cc1ccc(-[c+]2c3ccccc3oc3ccccc32)cc1

photoluminescence quantum yield (in ClCCl): 0.00196
SMILES: CCOC(=O)C1=C(C(=O)OCC)C2(c3cc(Cl)ccc3-c3ccc(Cl)cc32)C2(/C=C/c3ccccc3)c3cc(OC)c(OC)cc3CCN12 (configuration not stated)

photoluminescence quantum yield (in C1CCCCC1): 0.85 | photoluminescence quantum yield (in CC#N): 0.02 | photoluminescence quantum yield (in CO): 0.003 | photoluminescence quantum yield (in ClC(Cl)Cl): 0.73
SMILES: CN(C)c1ccc(-c2nc(C#N)c(C#N)n2C)cc1

photoluminescence quantum yield (in C1CCCCC1): 0.36 | photoluminescence quantum yield (in CC#N): 0.27 | photoluminescence quantum yield (in CO): 0.34 | photoluminescence quantum yield (in ClCCl): 0.45
SMILES: COc1c2ccccc2c(OC)c2c1c1ccc(F)cc1n2C

photoluminescence quantum yield (in ClC(Cl)Cl): 0.27
SMILES: CCCN1c2ccccc2Sc2cc(/C=C\c3cc(=O)oc4cc(C)ccc34)ccc21

photoluminescence quantum yield (in C1CCCCC1): 0.22 | photoluminescence quantum yield (in C1CCOC1): 0.34 | photoluminescence quantum yield (in CC#N): 0.35
SMILES: COc1ccc2nc3c(nc2c1)c(-c1ccccc1)nn3C

photoluminescence quantum yield (in CC#N): 0.19 | photoluminescence quantum yield (in CCCCOCCCC): 0.21 | photoluminescence quantum yield (in CO): 0.21
SMILES: c1ccc(Nc2nc(Nc3ccccc3)nc(Nc3cc4ccc5cccc6ccc(c3)c4c56)n2)cc1

photoluminescence quantum yield (in O): 0.016
SMILES: Cc1cn(CCCn2cc(C)c(=O)[nH]c2=O)c(=O)nc1-n1cncn1

photoluminescence quantum yield (in ClCCl): 0.215
SMILES: COc1cccc2cc(C)c3c4ccccc4n(C)c3c12
